“Also recorded” adds a separate entry of the source.
Assays:
ApoE null mice [1] = assay: Protection against LDL-induced monocyte chemotactic activity by HDL from apo E null mice given oral peptides; format: in vivo; details: peptide in drinking water (D-4F 5-50, D-J336 20-50 μg per ml), 24 hrs, murine HDL at 100 μg cholesterol/ml
Method: FIG. 4 illustrates the effect of oral apoA-1 peptide mimetic and apoJ peptide on HDL protective capacity. ApoE null mice (4 per group) were provided with D-4F (designated as F) at 50, 30, 20, 10, 5 μg per ml of drinking water or apoJ peptide (designated as J) at 50, 30 or 20 μg per ml of drinking water. After 24 hrs blood was collected, plasma fractionated by FPLC and fractions containing LDL (designated as mLDL for murine LDL) and fractions containing HDL (designated as mHDL) were separately pooled and HDL protective capacity against LDL oxidation as determined by LDL-induced monocyte chemotactic activity was determined. For the assay controls the culture wells received no lipoproteins (no additions), mLDL alone (at 200 μg cholesterol/ml), or mLDL+standard normal human HDL (designated as Cont. h HDL, at 350 μg HDL cholesterol/ml).
For testing the murine HDL, mLDL together with murine HDL (+F mHDL or +J mHDL) were added to artery wall cell cultures. […] The murine HDL was used at 100 μg cholesterol/ml.

LDL receptor null mice = assay: HDL protective capacity in LDL receptor null mice given peptide in drinking water; format: in vivo; details: 0.25 or 0.5 mg per ml drinking water, 24 or 48 hrs, mouse HDL at 100 μg cholesterol/ml
Method: D-4F designated as F, or the apoJ peptide made from D amino acids (D-J336, designated as J) was added to the drinking water of LDL receptor null mice (4 per group) at 0.25 or 0.5 mg per ml of drinking water. After 24- or 48-hrs blood was collected from the mice and their HDL was isolated and tested for its ability to protect against LDL-induced monocyte chemotactic activity. Assay controls included culture wells that received no lipoproteins (no addition), or control human LDL alone (designated as LDL, 200 μg cholesterol/ml), or control LDL+control human HDL (designated as +HDL, 350 μg HDL cholesterol). For testing the mouse HDL, the control LDL was added together with mouse HDL (+F HDL or +J HDL) to artery wall cell cultures. The mouse HDL was added at 100 μg cholesterol/ml respectively.

ApoE null mice [2] = assay: Trabecular bone mineral density in apoE null mice; format: in vivo; details: drinking water, 6 weeks
ApoE null mice [3] = assay: HDL and pre-beta HDL from apoE null mice fed solution-phase (fragment) synthesized D-4F: inhibition of LDL-induced monocyte chemotaxis; format: in vivo; details: apoE null mice fed 5 micrograms solution-phase/fragment-synthesized D-4F, bled at 12 hours; FIG. 15
Source text: ApoE null mice were fed 5 micrograms of the D-4F synthesized as described above (Frgmnt) or the mice were given the same amount of mouse chow without D-4F (Chow). Twelve hours after the feeding was started, the mice were bled and their plasma was fractionated on FPLC.

Obese Zucker Rats [4] = assay: Balloon injury of the common carotid artery, intimal media ratio; format: in vivo; details: 5 mg/kg/daily injected for 1 week before injury, sacrificed two weeks later, FIG. 13
Method: FIG. 13 illustrates the effect of D4F on balloon injury of the carotid artery. Sixteen week old Obese Zucker Rats were injected with D-4F (5 mg/kg/daily) for 1 week at which time they underwent balloon injury of the common carotid artery. Two weeks later the rats were sacrificed and the intimal media ratio determined.
Sixteen week old Obese Zucker Rats were injected with D-4F (5 mg/kg/daily) for 1 week at which time they underwent balloon injury of the common carotid artery. Two weeks later the rats were sacrificed and the intimal media ratio determined.

Obese Zucker Rats [5] = assay: Plasma glucose and lipid hydroperoxides (LOOH) in Obese Zucker Rats; format: in vivo; details: Obese Zucker Rats 26 weeks, 5.0 mg/kg/day intraperitoneal, 10 days; FIG. 12
Method: Obese Zucker Rats 26 weeks of age were bled and then treated with daily intraperitoneal injections of D-4F (5.0 mg/kg/day). After 10 days the rats were bled again plasma glucose and lipid hydroperoxides (LOOH) were determined. *p=0.027; ** p=0.0017.

[6] = tested on: mice fed an atherogenic diet; details: 20 μg daily injected; cited from earlier work
human volunteers = details: infusion into humans; cited from earlier work
mice = details: injection into mice; cited from earlier work
human LDL = human LDL treated in vitro; cited from earlier work
ApoE null mice [7] = assay: Protection against PAPC oxidation by HPODE by HDL from apo E null mice given oral peptides; format: in vivo; details: peptide in drinking water, 24 hrs, murine HDL at 100 μg cholesterol/ml
Method: FIG. 6 illustrates the effect of oral apoA-1 peptide mimetic and apoJ peptide on HDL protective capacity. ApoE null mice (4 per group) were provided with D-4F (designated as F) at 50, 30, 20, 10, 5 μg per ml of drinking water or apoJ peptide (D-J336 made from D amino acids and designated as J) at 50, 30 or 20 μg per ml of drinking water. After 24 hrs blood was collected, plasma fractionated by FPLC and fractions containing HDL (designated as mHDL) were pooled and HDL protective capacity against PAPC oxidation as determined by the induction of monocyte chemotactic activity was determined. For the assay controls the culture wells received no lipoproteins (no additions), the phospholipid PAPC at 20 μg/ml+HPODE, at 1.0 μg/ml, or PAPC+BPODE plus standard normal human HDL (at 350 μg HDL cholesterol/ml and designated as +Cont. h HDL).
For testing the murine HDL, PAPC+HPODE together with murine HDL (+F mHDL or +J mHDL) were added to artery wall cell cultures. […] The murine HDL was used at 100 μg cholesterol/ml.

ApoE null mice [8] = assay: Plasma paraoxonase (PON1) activity in apoE null mice given oral peptides; format: in vivo; details: apoE null mice, 50, 10 or 5 μg per ml drinking water, 24 hrs, FIG. 7
Method: ApoE null mice (4 per group) were provided with D-4F designated as F at 50, 10, 5 or 0 μg per ml of drinking water or apoJ peptide (D-J336 made from D amino acids and designated as J) at 50, 10 or 5 μg per ml of drinking water. After 24 hrs blood was collected and plasma was assayed for PON1 activity.

ApoE null mice [9] = assay: Ability of LDL from apoE null mice given oral peptides to induce monocyte chemotactic activity (LDL susceptibility to oxidation); format: in vivo; details: peptide in drinking water, 24 hrs
Method: FIG. 5 illustrates the effect of oral apo A-1 peptide mimetic and apoJ peptide on LDL susceptibility to oxidation. ApoE null mice (4 per group) were provided, in their drinking water, with D-4F (designated as F) at 50, 30, 20, 10, 5 μg per ml of drinking water or the apoJ peptide (D-J336 made from D amino acids and designated as J) at 50, 30 or 20 μg per ml of drinking water. After 24 hrs blood was collected from the mice shown in FIG. 4, plasma fractionated by FPLC and fractions containing LDL (designated as mLDL for murine LDL) were pooled and LDL susceptibility to oxidation as determined by induction of monocyte chemotactic activity was determined. For the assay controls the culture wells received no lipoproteins (no additions), mLDL alone (at 200 μg cholesterol/ml), or mLDL+standard normal human HDL (designated as Cont. h HDL, 350 μg HDL cholesterol).
Murine LDL, mLDL, from mice that received the D-4F (F mLDL) or those that received the apoJ peptide (J mLDL) were added to artery wall cell cultures.

[10] = tested on: Human aortic endothelial cells; assay: Prevention of LDL-induced monocyte chemotactic activity by pre-treatment (pre-incubation) of artery wall cells; format: cell-based; details: 6 hrs pre-incubation, D-J336 4, 2, 1 μg/ml vs D-4F 100-12.5 μg/ml, FIG. 2
Method: FIG. 2 illustrates a comparison of the effect of D-4F with the effect of D-J336 on the prevention of LDL induced monocyte chemotactic activity in a pre-incubation. Human aortic endothelial cells were pre-incubated with D-J336 or D-4F at 4, 2, and 1 μg/ml for DJ336 or 100, 50, 25, and 12.5 μg/ml for D-4F for 6 hrs. The cultures were then washed and were incubated with medium alone (no addition), or with control human LDL (200 μg protein/ml), or with control human LDL+control human HDL (350 μg HDL protein/ml) as assay controls. The wells that were pre-treated with peptides received the control human LDL at 200 μg protein/ml. Following overnight incubation, the supernatants were assayed for monocyte chemotactic activity.

[11] = tested on: Human aortic endothelial cells; assay: Prevention of LDL-induced monocyte chemotactic activity in vitro, co-incubation; format: cell-based; details: co-incubation with control human LDL 200 μg protein/ml, overnight; FIG. 1
Method: FIG. 1 illustrates a comparison of the effect of D-4F (Circulation 2002; 105:290-292) with the effect of an apoJ peptide made from D amino acids (D-J336, Ac-LLEQLNEQFNWVSRLANLTQGE-NH2, SEQ ID NO:13) on the prevention of LDL-induced monocyte chemotactic activity in vitro in a co-incubation. Human aortic endothelial cells were incubated with medium alone (no addition), with control human LDL (200 μg protein/ml) or control human LDL+control human HDL (350 μg HDL protein/ml). D-J336 or D-4F was added to other wells in a concentration range as indicated plus control human LDL (200 μg protein/ml). Following overnight incubation, the supernatants were assayed for monocyte chemotactic activity.

For “Ac-D-W-F-K-A-F-Y-D-K-V-A-E-K-F-K-E-A-F-NH2 (Ac-DWFKAFYDKVAEKFKEAF-NH2; also: D-amino acids, places not given here) [Peptide D-4F, apoA-I mimetic class A amphipathic helical peptide]”, the “HDL protective capacity against LDL oxidation (LDL-induced monocyte chemotactic activity)” value (ApoE null mice [1]; FIG. 4) was “as active as 350 μg/ml of normal human HDL”, the “HDL protective capacity against LDL-induced monocyte chemotactic activity” value (LDL receptor null mice; FIG. 3) was “as active as 350 μg/ml of control human HDL” and the “trabecular bone mineral density” value (ApoE null mice [2]) was “dramatically increased”. The “biological activity: producing HDL and pre-beta HDL that inhibit LDL-induced monocyte chemotaxis” value (ApoE null mice [3]) was “biologically active in mice; also recorded: very biologically active”, the “restenosis (intimal media ratio) after balloon injury of the common carotid artery” value (Obese Zucker Rats [4]) was “reduced” and the “symptoms of diabetes (plasma glucose)” value (Obese Zucker Rats [5]) was “effective in mitigating symptoms of diabetes”.
In the case of “Ac-D-W-L-K-A-F-Y-D-K-V-F-E-K-F-K-E-F-F-NH2 (Ac-DWLKAFYDKVFEKFKEFF-NH2) [Peptide 5F]”, the “LDL from PBS-injected mice compared with LDL from peptide-injected mice: oxidation and induction of monocyte chemotactic activity” value [6] is given as “more readily oxidized and more readily induced monocyte chemotactic activity”.
In the case of “apo A-I: the major protein of HDL, apolipoprotein A-I”, the “LDL isolated after infusion: oxidation by human artery wall cells and induction of monocyte chemotactic activity” value (human volunteers) is listed as “resistant to oxidation by human artery wall cells and did not induce monocyte chemotactic activity”, the “LDL isolated after injection: oxidation by human artery wall cells and induction of monocyte chemotactic activity” value (mice) is listed as “resistant to oxidation by human artery wall cells and did not induce monocyte chemotactic activity” and the “removal of seeding molecules (including HPODE and HPETE) from LDL” value (human LDL) is listed as “removed seeding molecules from the LDL”.
For Ac-LLEQLNEQFNWVSRLANLTQGE-NH2 [D-J336], the “HDL protective capacity against LDL oxidation (LDL-induced monocyte chemotactic activity)” value (ApoE null mice [1]; FIG. 4) was “as active as 350 μg/ml of normal human HDL”, the “HDL protective capacity against LDL oxidation (LDL-induced monocyte chemotactic activity)” value (ApoE null mice [1]; FIG. 4, listed as D-J peptide) was “as potent as D-4F” and the “HDL protective capacity against LDL oxidation (LDL-induced monocyte chemotactic activity)” value (ApoE null mice [1]; FIG. 4, listed as DJ336) was “as potent as D4F”. For the same substance, the “HDL protective capacity against LDL-induced monocyte chemotactic activity” value (LDL receptor null mice; FIG. 3) was “as active as 350 μg/ml of control human HDL”, the “HDL protective capacity against LDL-induced monocyte chemotactic activity” value (LDL receptor null mice; FIG. 3, listed as DJ335) was “essentially as effective as D4F” and the “causing HDL to inhibit oxidation of PAPC by HPODE (generation of monocyte chemotactic activity)” value (ApoE null mice [7]; FIG. 6) was “as potent as D-4F”. The “causing HDL to inhibit oxidation of PAPC by HPODE (generation of monocyte chemotactic activity)” value (ApoE null mice [7]; FIG. 6, listed as DJ336) was “as potent as D4F”, the “increasing plasma paraoxonase activity” value (ApoE null mice [8]) was “at least as potent as D-4F” and the “increasing plasma paraoxonase activity” value (ApoE null mice [8]; listed as DJ336) was “at least as potent as D4F”. The “rendering LDL resistant to oxidation by human artery wall cells (induction of monocyte chemotactic activity)” value (ApoE null mice [9]; FIG. 5) was “slightly more potent than D-4F”, the “rendering LDL resistant to oxidation by human artery wall cells (induction of monocyte chemotactic activity)” value (ApoE null mice [9]; FIG. 5, listed as DJ336) was “slightly more potent than D4F” and the “potency in preventing LDL oxidation by artery wall cells in vitro, times more potent than D-4F” value [10] was 10 to 25 times. The “potency in preventing LDL oxidation by artery wall cells in vitro, times more potent than D-4F” value ([10]; listed as ApoJ variant peptide) was 10-25 times and the “in vitro concentration that prevents LDL-induced monocyte chemotactic activity by human artery wall cells, times less than the concentration required for D-4F” value [11] was 10 to 25 times.

Reference: patent US20060205669A1, “G-type peptides and other agents to ameliorate atherosclerosis and other pathologies” (The Regents of the University of California, priority 2004, published 2006)
